Literature values in patent publication US20050084550A1, “Weight reduction and maintenance method for animals” (International Flora Technologies, priority 2001, published 2005).

How the values were obtained:
food intake in mice = details: appetite suppressant
food intake in rats = details: appetite suppressant
food intake in chickens = details: appetite suppressant

For `CO[C@H]1[C@@H](OC)C[C@@H](O[C@@H]2O[C@H](CO)[C@@H](O)[C@H](O)[C@H]2O)/C(=C\C#N)[C@@H]1O` [simmondsin], the solubility in hexane (hexane) is given as “not soluble”, the “solubility in jojoba oil” value (jojoba oil) is given as “not soluble” and the food intake (food intake in mice) is given as “reduces food intake”. The food intake (food intake in rats) was “reduces food intake” and the food intake (food intake in chickens) was “reduces food intake”.
